Experimental findings from patent US9802960B2 (MILLENNIUM PHARMACEUTICALS, INC., priority 2014, dated 2017) are described below.

Usually inhibition stands for the percentage by which the read-out fell short of the control.

The target in one experiment is Human VPS34 (Homo sapiens (Human), UniProt Q8NEB9). The experiment can be described thus: Human VPS34 enzyme assay (Adapta TR-FRET). It is filed as biochemical. The note with it: compound concentration 1.11 μM. (TR-FRET usually uses a lanthanide donor and a delayed reading to cut background.)
Chain of Human VPS34 (Q8NEB9 whole entry): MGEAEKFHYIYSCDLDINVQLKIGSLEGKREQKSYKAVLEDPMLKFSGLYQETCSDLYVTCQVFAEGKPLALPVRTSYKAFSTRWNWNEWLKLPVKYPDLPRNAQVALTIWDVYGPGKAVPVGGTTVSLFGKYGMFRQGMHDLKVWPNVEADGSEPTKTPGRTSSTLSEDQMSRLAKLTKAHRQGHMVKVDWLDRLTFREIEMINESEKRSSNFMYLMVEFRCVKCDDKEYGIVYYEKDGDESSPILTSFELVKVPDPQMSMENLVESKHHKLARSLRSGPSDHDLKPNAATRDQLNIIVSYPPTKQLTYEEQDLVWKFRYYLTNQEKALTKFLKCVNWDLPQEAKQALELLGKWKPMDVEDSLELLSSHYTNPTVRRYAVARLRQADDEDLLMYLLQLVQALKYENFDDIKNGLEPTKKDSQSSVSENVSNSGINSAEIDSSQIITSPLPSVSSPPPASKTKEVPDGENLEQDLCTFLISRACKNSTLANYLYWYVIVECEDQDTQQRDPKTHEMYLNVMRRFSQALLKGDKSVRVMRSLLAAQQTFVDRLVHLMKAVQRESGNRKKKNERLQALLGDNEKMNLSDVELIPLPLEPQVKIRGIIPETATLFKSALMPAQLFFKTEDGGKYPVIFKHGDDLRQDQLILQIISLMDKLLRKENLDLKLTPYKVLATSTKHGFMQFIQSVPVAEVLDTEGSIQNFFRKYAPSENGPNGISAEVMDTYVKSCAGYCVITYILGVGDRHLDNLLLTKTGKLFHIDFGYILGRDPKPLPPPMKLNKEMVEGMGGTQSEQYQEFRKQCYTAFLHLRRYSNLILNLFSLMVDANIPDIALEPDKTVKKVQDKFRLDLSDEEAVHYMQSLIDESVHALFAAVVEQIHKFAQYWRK
As to `CC(=O)Nc1cc(-c2cnc(C)c(NS(=O)(=O)N3CC4CCC3C4)c2)ccn1` (stereo not shown) [Compound I-445, N-{5-[(2-azabicyclo[2.2.1]hept-2-ylsulfonyl)amino]-6-methyl-3,4′-bipyridin-2′-yl}acetamide], the “Percent Inhibition” value is given as above 99%. On to `CC(=O)Nc1cc(-c2cnc(Cl)c(NS(=O)(=O)N(C)C)c2)ccn1` [Compound I-372, N-{6-chloro-5-[(dimethylsulfamoyl)amino]-3,4′-bipyridin-2′-yl}acetamide], for which the “Percent Inhibition” value was above 99%.

Staying with this experiment, now noted: compound concentration 1.11 μM; read-out: Percent Inhibition.
With `CC(=O)Nc1cc(-c2cnc(N)c(C(=O)N3CC[C@@H](F)C3)c2)ccn1` [Compound I-157, N-(6-amino-5-{[(3R)-3-fluoropyrrolidin-1-yl]carbonyl}-3,4′-bipyridin-2′-yl)acetamide], the inhibition at 1.11 µM was above 99%.

As to `CC(=O)Nc1cc(-c2cnc3ccn(S(C)(=O)=O)c3c2)ccn1` [Compound I-33, N-{4-[1-(methylsulfonyl)-1H-pyrrolo[3,2-b]pyridin-6-yl]pyridin-2-yl}acetamide], the inhibition at 1.11 µM is above 99%.

In the case of `COC(=O)Nc1cc(-c2cnc(C)c(NS(=O)(=O)c3ccc(Cl)cc3F)c2)ccn1` [Compound I-417, methyl (5-{[(4-chloro-2-fluorophenyl)sulfonyl]amino}-6-methyl-3,4′-bipyridin-2′-yl)carbamate], the inhibition at 1.11 µM is above 99%.

Turning to `CC(=O)Nc1cc(-c2cnc3[nH]cc(S(=O)(=O)c4ccccc4)c3c2)ccn1` [Compound I-176, N-{4-[3-(phenylsulfonyl)-1H-pyrrolo[2,3-b]pyridin-5-yl]pyridin-2-yl}acetamide], the inhibition at 1.11 µM was above 99%. Still for that read-out and setting: to `CC(=O)Nc1cc(-c2cnc(C)c(NS(=O)(=O)c3ccc(F)cc3F)c2)cc(C)n1` [Compound I-414, N-(5-{[(2,4-difluorophenyl)sulfonyl]amino}-6,6′-dimethyl-3,4′-bipyridin-2′-yl)acetamide] belongs 89%; to `Cc1ncc(-c2ccnc(Nc3ccnc(C4CC4)n3)c2)cc1C(=O)N1CCC1` [Compound I-246, azetidin-1-yl{2′-[(2-cyclopropylpyrimidin-4-yl)amino]-6-methyl-3,4′-bipyridin-5-yl}methanone], 91%. As to `COC(=O)Nc1cc(-c2cnc(N)c(C(=O)N(C)C)c2)ccn1` [Compound I-55, methyl [6-amino-5-(dimethylcarbamoyl)-3,4′-bipyridin-2′-yl]carbamate], the inhibition at 1.11 µM was above 99%. On to `CCN(c1cc(-c2ccnc(NC(C)=O)c2)cnc1C)S(=O)(=O)C1CC1` [Compound I-26, N-{5-[(cyclopropylsulfonyl)(ethyl)amino]-6-methyl-3,4′-bipyridin-2′-yl}acetamide], for which the inhibition at 1.11 µM was above 99%. On the same count and under the same terms, to `Cc1nccc(Nc2cc(-c3cnc(Cl)c(S(=O)(=O)NC45CC(C4)C5)c3)ccn2)n1` [Compound I-242, N-(bicyclo[1.1.1]pent-1-yl)-6-chloro-2′-[(2-methylpyrimidin-4-yl)amino]-3,4′-bipyridine-5-sulfonamide] belongs 88%.

Consider `Cc1ncc(-c2ccnc(NC(=O)C3CC3(F)F)c2)cc1NS(=O)(=O)c1ccc(F)cc1F` (stereo not shown) [Compound I-267a, N-(5-{[(2,4-difluorophenyl)sulfonyl]amino}-6-methyl-3,4′-bipyridin-2′-yl)-2,2-difluorocyclopropanecarboxamide], for which the inhibition at 1.11 µM stood at 97%. Same read-out and setting: to `CC(=O)Nc1cc(-c2cnc(C)c(NS(=O)(=O)c3ccc(F)cc3)c2)ccn1` [Compound I-185, N-(5-{[(4-fluorophenyl)sulfonyl]amino}-6-methyl-3,4′-bipyridin-2′-yl)acetamide] belongs above 99%; to `COc1ncc(-c2ccnc(NC(C)=O)c2)c(C)c1S(=O)(=O)NC(C)(C)C` [Compound I-442, N-[5-(tert-butylsulfamoyl)-6-methoxy-4-methyl-3,4′-bipyridin-2′-yl]acetamide], above 99%. The same measure, in the same setting: to `COC(=O)Nc1cc(-c2cnc(N)c(S(=O)(=O)N(C)C)c2)ccn1` [Compound I-171, Methyl [6-amino-5-(dimethylsulfamoyl)-3,4′-bipyridin-2′-yl]carbamate] belongs above 99%; to `Cc1cnc(NC(=O)C2CC2)cc1-c1cnc(Cl)c(NS(=O)(=O)c2ccc(F)cc2F)c1C` [Compound I-430, N-(6-chloro-5-{[(2,4-difluorophenyl)sulfonyl]amino}-4,5′-dimethyl-3,4′-bipyridin-2′-yl)cyclopropanecarboxamide], 92%; to `CC(=O)Nc1cc(-c2cnc(N)c(S(=O)(=O)Cc3ccc(F)cc3F)c2)ccn1` [Compound I-138, N-{6-amino-5-[(2,4-difluorobenzyl)sulfonyl]-3,4′-bipyridin-2′-yl}acetamide], above 99%. The same measure, in the same setting: to `CC(=O)Nc1cc(-c2cnc(C)c(NS(=O)(=O)c3cccnc3)c2)ccn1` [Compound I-45, N-{6-methyl-5-[(pyridin-3-ylsulfonyl)amino]-3,4′-bipyridin-2′-yl}acetamide] belongs above 99%; to `COC(=O)Nc1cc(-c2cnc(C)c(NS(=O)(=O)c3ccc(F)cc3F)c2)ccn1` [Compound I-195, methyl (5-{[(2,4-difluorophenyl)sulfonyl]amino}-6-methyl-3,4′-bipyridin-2′-yl)carbamate], above 99%; to `CC(=O)Nc1cc(-c2cnc(C)c(NS(=O)(=O)c3cc(F)ccc3F)c2)ccn1` [Compound I-52], above 99%. Regarding `CNc1ncc(-c2ccnc(NC(C)=O)c2)cc1C(=O)N(C)C` [Compound I-22, 2′-acetamido-N,N-dimethyl-6-(methylamino)-3,4′-bipyridine-5-carboxamide], the inhibition at 1.11 µM was above 99%.

Take `CC(=O)Nc1cc(-c2cncc(NS(=O)(=O)N(C)C)c2)ccn1` [Compound I-348, N-{5-[(dimethylsulfamoyl)amino]-3,4′-bipyridin-2′-yl}acetamide]: the inhibition at 1.11 µM was above 99%. The same measure, in the same setting: to `CC(=O)Nc1cc(-c2cnc(Cl)c(NS(=O)(=O)c3ccc(Cl)cc3Cl)c2C)ccn1` [Compound I-243, N-(6-chloro-5-{[(2,4-dichlorophenyl)sulfonyl]amino}-4-methyl-3,4′-bipyridin-2′-yl)acetamide] belongs 85%; to `CC(=O)Nc1cc(-c2cnc(Cl)c(NS(=O)(=O)c3ccccc3Cl)c2C)ccn1` [Compound I-240, N-(6-chloro-5-{[(2-chlorophenyl)sulfonyl]amino}-4-methyl-3,4′-bipyridin-2′-yl)acetamide], above 99%; to `Cc1c(-c2ccnc(NC(=O)C3CC3(F)F)c2)cnc(Cl)c1NS(=O)(=O)c1ccc(F)cc1F` (stereo not shown) [Compound I-254, N-(6-chloro-5-{[(2,4-difluorophenyl)sulfonyl]amino}-4-methyl-3,4′-bipyridin-2′-yl)-2,2-difluorocyclopropanecarboxamide], 77%. Same read-out and setting: to `CC(=O)Nc1cc(-c2cnc(Cl)c(S(=O)(=O)NC34CC(C3)C4)c2)ccn1` [Compound I-366, N-[5-(bicyclo[1.1.1]pent-1-ylsulfamoyl)-6-chloro-3,4′-bipyridin-2′-yl]acetamide] belongs above 99%. In the case of `Cc1ncc(-c2ccnc(Nc3nc4ccccc4s3)c2)cc1NS(=O)(=O)c1ccc(F)cc1F` [Compound I-271, N-[2′-(1,3-benzothiazol-2-ylamino)-6-methyl-3,4′-bipyridin-5-yl]-2,4-difluorobenzenesulfonamide], the inhibition at 1.11 µM was found to be 91%. On the same count and under the same terms, to `Cc1nccc(Nc2cc(-c3cnc(Cl)c(NS(=O)(=O)c4ccc(F)cc4F)c3C)c(F)cn2)n1` [Compound I-294, N-{6-chloro-5′-fluoro-4-methyl-2′-[(2-methylpyrimidin-4-yl)amino]-3,4′-bipyridin-5-yl}-2,4-difluorobenzenesulfonamide] belongs 94%; to `COc1nccc(Nc2cc(-c3cnc(Cl)c(NS(=O)(=O)c4ccc(F)cc4F)c3C)ccn2)n1` [Compound I-225, N-{6-chloro-2′-[(2-methoxypyrimidin-4-yl)amino]-4-methyl-3,4′-bipyridin-5-yl}-2,4-difluorobenzene sulfonamide], above 99%. Still for that read-out and setting: to `Cc1nccc(Nc2cc(-c3cnc(Cl)c(S(=O)(=O)NC4CCC4)c3)ccn2)n1` [Compound I-215, 6-chloro-N-cyclobutyl-2′-((2-methylpyrimidin-4-yl)amino)-[3,4′-bipyridine]-5-sulfonamide] belongs 99%; to `Cc1nccc(Nc2cc(-c3cnc(C)c(C(=O)N(C)C45CC(C4)C5)c3)ccn2)n1` [Compound I-275, N-(bicyclo[1.1.1]pent-1-yl)-N,6-dimethyl-2′-[(2-methylpyrimidin-4-yl)amino]-3,4′-bipyridine-5-carboxamide], above 99%. On the same count and under the same terms, to `CC(=O)Nc1cc(-c2cnc(N)c(N(C)S(C)(=O)=O)c2)ccn1` [Compound I-133, N-{6-amino-5-[methyl(methylsulfonyl)amino]-3,4′-bipyridin-2′-yl}acetamide] belongs above 99%. With `CC(=O)Nc1cc(-c2cnc(N)c(S(N)(=O)=O)c2)ccn1` [Compound I-61, N-(6-amino-5-sulfamoyl-3,4′-bipyridin-2′-yl)acetamide], the inhibition at 1.11 µM was found to be 95%. Turning to `CC(=O)Nc1cc(-c2cnc(Cl)c(N3CCCN(C)S3(=O)=O)c2)ccn1` [Compound I-467, N-[6-chloro-5-(6-methyl-1,1-dioxido-1,2,6-thiadiazinan-2-yl)-3,4′-bipyridin-2′-yl]acetamide], the inhibition at 1.11 µM is above 99%.

Turning to `CC(=O)Nc1cc(-c2cnc(C)c(NS(=O)(=O)c3ccc(C(C)C)cc3)c2)ccn1` [Compound I-134, N-(5-{[(4-isopropylphenyl)sulfonyl]amino}-6-methyl-3,4′-bipyridin-2′-yl)acetamide], the inhibition at 1.11 µM was above 99%.

Regarding `O=C(Nc1cc(-c2cnc3[nH]ncc3c2)ccn1)C1CC1` [Compound I-117, N-[4-(1H-pyrazolo[3,4-b]pyridin-5-yl)pyridin-2-yl]cyclopropanecarboxamide], the inhibition at 1.11 µM is above 99%.

The same experiment, now with this note: read-out: Percent Inhibition.
As for `CC(=O)Nc1cc(-c2cnc(N)c(S(=O)(=O)N(C)C)c2)c(F)cn1` [Compound I-186], the inhibition at 1.11 µM was above 99%.
